The text below walks through data of patent US10294234B2, “HIV inhibitor compounds” (priority 2017, dated 2019).

pEC50: −log10 of the molar value.

One experiment has as its system HIV-1 (IIIB) in MT-4 cells. Description: MT-4 HIV assay. Type of experiment: cell-based. As to conditions: HIV-1 (IIIB), MT-4 cells, 5 days, Cell Titer Glo; read-out: EC50. A digest of the protocol: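 MT-4 cells infected with HIV-1 IIIB (1:250 stock dilution) were incubated with 1:3 serially diluted compounds in RPMI with 10% FBS for 5 days at 37 °C. Cell Titer Glo luminescence was the readout. Plates included mock-infected wells, no-drug wells and 5 uM AZT controls.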
(In general: In ATP-based viability assays light output follows the ATP content of the culture.)
`COC(=O)N[C@H](C(=O)N[C@@H](Cc1ccc(C#Cc2ccc(N3CC4CC(C3)N4C3COC3)nc2)cc1)[C@@H](O)CN(Cc1c(F)cc(-c2ccc(F)cn2)cc1F)NC(=O)[C@@H](NC(=O)OC)C(C)(C)C(F)(F)F)C(C)(C)C(F)(F)F` [Example 139, Methyl ((5S,10S,11S,14S)-8-(2,6-difluoro-4-(5-fluoropyridin-2-yl)benzyl)-16,16,16-trifluoro-10-hydroxy-15,15-dimethyl-11-(4-((6-(6-(oxetan-3-yl)-3,6-diazabicyclo[3.1.1]heptan-3-yl)pyridin-3-yl)ethynyl)benzyl)-3,6,13-trioxo-5-(1,1,1-trifluoro-2-methylpropan-2-yl)-2-oxa-4,7,8,12-tetraazahexadecan-14-yl)carbamateate]: the pEC50 is 8.41.

The same experiment, now with this note: Human immunodeficiency virus 1, MT4, 120 h.
Regarding `COC(=O)N[C@H](C(=O)N[C@@H](Cc1ccc(C#Cc2ccc(N3CC4CCC(C3)N4C3COC3)nc2)cc1)[C@@H](O)CN(Cc1ccc(-c2ccc(F)cn2)cc1)NC(=O)[C@@H](NC(=O)OC)C(C)(C)C(F)(F)F)C(C)(C)C(F)(F)F` [Example 111, Methyl ((5S,8S,9S,14S)-16,16,16-trifluoro-11-(4-(5-fluoropyridin-2-yl)benzyl)-9-hydroxy-15,15-dimethyl-8-(4-((6-(8-(oxetan-3-yl)-3,8-diazabicyclo [3.2.1]octan-3-yl)pyridin-3-yl)ethynyl)benzyl)-3,6,13-trioxo-5-(1,1,1-trifluoro-2-methylpropan-2-yl)-2-oxa-4,7,11,12-tetraazahexadecan-14-yl)carbamate], the pEC50 is 8.14.

`COC(=O)N[C@H](C(=O)N[C@@H](Cc1ccc(C#Cc2ccc(N3CCN(C4(C)COC4)CC3)nc2)cc1)[C@@H](O)CN(Cc1c(F)cc(-c2ccn(C(F)F)n2)cc1F)NC(=O)[C@@H](NC(=O)OC)C(C)(C)C(F)(F)F)C(C)(C)C(F)(F)F` [Example 141, methyl ((5S,8S,9S,14S)-11-(4-(1-(difluoromethyl)-1H-pyrazol-3-yl)-2,6-difluorobenzyl)-16,16,16-trifluoro-9-hydroxy-15,15-dimethyl-8-(4-((6-(4-(3-methyloxetan-3-yl)piperazin-1-yl)pyridin-3-yl)ethynyl)benzyl)-3,6,13-trioxo-5-(1,1,1-trifluoro-2-methylpropan-2-yl)-2-oxa-4,7,11,12-tetraazahexadecan-14-yl)carbamate] gave a pEC50 of 8.18.

The same experiment, now with this note: Human immunodeficiency virus 1, MT4, 120 h; HIV-1 (IIIB), MT-4 cells, 5 days, Cell Titer Glo; read-out: EC50.
As to `COC(=O)N[C@H](C(=O)N[C@@H](Cc1ccc(C#Cc2ccc(N3CCN(C4COC4)CC3)nc2)cc1)[C@@H](O)CN(Cc1ccc(-c2cnn(C(F)F)c2)cc1)NC(=O)[C@@H](NC(=O)OC)C(C)(C)C(F)(F)F)C(C)(C)C(F)(F)F` [Example 113, Methyl ((5S,8S,9S,14S)-11-(4-(1-(difluoromethyl)-1H-pyrazol-4-yl)benzyl)-16,16,16-trifluoro-9-hydroxy-15,15-dimethyl-8-(4-((6-(4-(oxetan-3-yl)piperazin-1-yl)pyridin-3-yl)ethynyl)benzyl)-3,6,13-trioxo-5-(1,1,1-trifluoro-2-methylpropan-2-yl)-2-oxa-4,7,11,12-tetraazahexadecan-14-yl)carbamate], the pEC50 was 8.22. As for `COC(=O)N[C@H](C(=O)NN(Cc1ccc(-c2cnn(C3CC3)c2)cc1)C[C@H](O)[C@H](Cc1ccc(C#Cc2ccc(N3CC4CCC(C3)N4C3COC3)nc2)cc1)NC(=O)[C@@H](NC(=O)OC)C(C)(C)C(F)(F)F)C(C)(C)C` [Example 117, Methyl ((5S,8S,9S,14S)-11-(4-(1-cyclopropyl-1H-pyrazol-4-yl)benzyl)-9-hydroxy-15,15-dimethyl-8-(4-((6-(8-(oxetan-3-yl)-3,8-diazabicyclo [3.2.1]octan-3-yl)pyridin-3-yl)ethynyl)benzyl)-3,6,13-trioxo-5-(1,1,1-trifluoro-2-methylpropan-2-yl)-2-oxa-4,7,11,12-tetraazahexadecan-14-yl)carbamate], the pEC50 is 8.38. Regarding `COC(=O)N[C@H](C(=O)N[C@@H](Cc1ccc(C#Cc2cnc(N3CC4CCC(C3)N4C3COC3)nc2)cc1)[C@@H](O)CN(Cc1ccc(-c2ccn(C(F)F)n2)cc1F)NC(=O)[C@@H](NC(=O)OC)C(C)(C)C(F)(F)F)C(C)(C)C(F)(F)F` [Example 118, Methyl ((5S,8S,9S,14S)-11-(4-(1-(difluoromethyl)-1H-pyrazol-3-yl)-2-fluorobenzyl)-16,16,16-trifluoro-9-hydroxy-15,15-dimethyl-8-(4-((2-(8-(oxetan-3-yl)-3,8-diazabicyclo[3.2.1]octan-3-yl)pyrimidin-5-yl)ethynyl)benzyl)-3,6,13-trioxo-5-(1,1,1-trifluoro-2-methylpropan-2-yl)-2-oxa-4,7,11,12-tetraazahexadecan-14-yl)carbamate], the pEC50 was 7.97. `COC(=O)N[C@H](C(=O)N[C@@H](Cc1ccc(C#Cc2ccc(N3C[C@@H](C)O[C@@H](C)C3)nc2)cc1)[C@@H](O)CN(Cc1c(F)cc(-c2cnn(C(F)F)c2)cc1F)NC(=O)[C@@H](NC(=O)OC)C(C)(C)C(F)(F)F)C(C)(C)C(F)(F)F` [Example 132, Methyl ((5S,8S,9S,14S)-11-(4-(1-(difluoromethyl)-1H-pyrazol-4-yl)-2,6-difluorobenzyl)-8-(4-((6-((2S,6R)-2,6-dimethylmorpholino)pyridin-3-yl)ethynyl)benzyl)-16,16,16-trifluoro-9-hydroxy-15,15-dimethyl-3,6,13-trioxo-5-(1,1,1-trifluoro-2-methylpropan-2-yl)-2-oxa-4,7,11,12-tetraazahexadecan-14-yl)carbamate]: the pEC50 is 7.74. With `COC(=O)N[C@H](C(=O)N[C@@H](Cc1ccc(C#Cc2ccc(N3C[C@H]4C[C@@H]3CN4C3COC3)nc2)cc1)[C@@H](O)CN(Cc1c(F)cc(-c2ccc(F)cn2)cc1F)NC(=O)[C@@H](NC(=O)OC)C(C)(C)C(F)(F)F)C(C)(C)C(F)(F)F` [Example 135, Methyl ((5S,10S,11S,14S)-8-(2,6-difluoro-4-(5-fluoropyridin-2-yl)benzyl)-16,16,16-trifluoro-10-hydroxy-15,15-dimethyl-11-(4-((6-((1R,4R)-5-(oxetan-3-yl)-2,5 diazabicyclo[2.2.1]heptan-2-yl)pyridin-3-yl)ethynyl)benzyl)-3,6,13-trioxo-5-(1,1,1-trifluoro-2-methylpropan-2-yl)-2-oxa-4,7,8,12-tetraazahexadecan-14-yl)carbamate], the pEC50 is 8.44. Still for that read-out and setting: next, `COC(=O)N[C@H](C(=O)N[C@@H](Cc1ccc(C#Cc2ccc(N3CCN4CCOC[C@H]4C3)nc2)cc1)[C@@H](O)CN(Cc1c(F)cc(-c2ccn(C3CC3)n2)cc1F)NC(=O)[C@@H](NC(=O)OC)C(C)(C)C(F)(F)F)C(C)(C)C(F)(F)F` [Example 136, methyl ((5S,8S,9S,14S)-11-(4-(1-cyclopropyl-1H-pyrazol-3-yl)-2,6-difluorobenzyl)-16,16,16-trifluoro-8-(4-((6-((R)-hexahydropyrazino[2,1-c][1,4]oxazin-8(1H)-yl)pyridin-3-yl)ethynyl)benzyl)-9-hydroxy-15,15-dimethyl-3,6,13-trioxo-5-(1,1,1-trifluoro-2-methylpropan-2-yl)-2-oxa-4,7,11,12-tetraazahexadecan-14-yl)carbamate]: 8.41; `COC(=O)N[C@H](C(=O)N[C@@H](Cc1ccc(C#Cc2ccc(N3CCN4CCOC[C@H]4C3)nc2)cc1)[C@@H](O)CN(Cc1c(F)cc(-c2cc(F)ccn2)cc1F)NC(=O)[C@@H](NC(=O)OC)C(C)(C)C(F)(F)F)C(C)(C)C(F)(F)F` [Example 137, Methyl ((5S,8S,9S,14S)-11-(2,6-difluoro-4-(4-fluoropyridin-2-yl)benzyl)-16,16,16-trifluoro-8-(4-((6-((R)-hexahydropyrazino[2,1-c][1,4]oxazin-8(1H)-yl)pyridin-3-yl)ethynyl)benzyl)-9-hydroxy-15,15-dimethyl-3,6,13-trioxo-5-(1,1,1-trifluoro-2-methylpropan-2-yl)-2-oxa-4,7,11,12-tetraazahexadecan-14-yl)carbamate]: 8.48; `COC(=O)N[C@H](C(=O)N[C@@H](Cc1ccc(C#Cc2ccc(N3CC4CC(C3)N4C3COC3)nc2)cc1)[C@@H](O)CN(Cc1c(F)cc(-c2cc(F)ccn2)cc1F)NC(=O)[C@@H](NC(=O)OC)C(C)(C)C(F)(F)F)C(C)(C)C(F)(F)F` [Example 140, Methyl ((5S,10S,11S,14S)-8-(2,6-difluoro-4-(4-fluoropyridin-2-yl)benzyl)-16,16,16-trifluoro-10-hydroxy-15,15-dimethyl-11-(4-((6-(6-(oxetan-3-yl)-3,6-diazabicyclo [3.1.1]heptan-3-yl)pyridin-3-yl)ethynyl)benzyl)-3,6,13-trioxo-5-(1,1,1-trifluoro-2-methylpropan-2-yl)-2-oxa-4,7,8,12-tetraazahexadecan-14-yl)carbamate]: 8.29. As for `COC(=O)N[C@H](C(=O)N[C@@H](Cc1ccc(C#Cc2ccc(N3CC4CCC(C3)N4[C@H]3CCOC3)nc2)cc1)[C@@H](O)CN(Cc1c(F)cc(-c2ccn(C(F)F)n2)cc1F)NC(=O)[C@@H](NC(=O)OC)C(C)(C)C(F)(F)F)C(C)(C)C(F)(F)F` [Example 142, Methyl ((5S,8S,9S,14S)-11-(4-(1-(difluoromethyl)-1H-pyrazol-3-yl)-2,6-difluorobenzyl)-16,16,16-trifluoro-9-hydroxy-15,15-dimethyl-3,6,13-trioxo-8-(4-((6-(8-((S)-tetrahydrofuran-3-yl)-3,8-diazabicyclo[3.2.1]octan-3-yl)pyridin-3-yl)ethynyl)benzyl)-5-(1,1,1-trifluoro-2-methylpropan-2-yl)-2-oxa-4,7,11,12-tetraazahexadecan-14-yl)carbamate], the pEC50 was 8.06.

Broadly, the pEC50 is the EC50 on a negative log10 scale, so that one unit is a factor of ten.
